The source of these data is ChEMBL document CHEMBL4651402, “Screening of ~5500 FDA-approved drugs and clinical candidates for anti-SARS-CoV-2 activity” (2021).

The first test relates to SARS-CoV-2. The test can be described thus: microbe, parasite or virus in culture. The settings on record: Severe acute respiratory syndrome coronavirus 2, Vero C1008, 48 h.
For the compound `CC(=O)Oc1cc(O[C@H](C)CCCc2ccccc2)cc2c1[C@@H]1C[C@H](O)CC[C@H]1[C@H](C)N2` [LEVONANTRADOL], the IC50 is above 20 µM.

Consider `CC(C)Nc1nc2cc(Cl)c(Cl)cc2n1[C@H]1O[C@@H](CO)[C@H](O)[C@@H]1O` [MARIBAVIR], for which the IC50 is above 50.1 µM.

For the compound `O=C(O)c1ccc(OCCn2ccnc2)cc1` [DAZOXIBEN], the IC50 was above 20 µM.

Turning to `COc1cccc(OC)c1-c1cc(C(=O)NC2(C(=O)O)C3CC4CC(C3)CC2C4)nn1-c1ccnc2cc(Cl)ccc12` (stereo not given) [REMINERTANT], the IC50 is above 20 µM.

Turning to `CN1CCN(C(=O)OC2c3nccnc3C(=O)N2c2ccc(Cl)cn2)CC1` (stereo not given) [ZOPICLONE], the IC50 is above 20 µM.

Compound `Nc1ccc(C(=O)O)c(O)c1` [AMINOSALICYLIC ACID] gave an IC50 above 20 µM.

`CNC(=C[N+](=O)[O-])NCCSCc1csc(CN(C)C)n1` [NIZATIDINE] gave an IC50 above 20 µM.

The compound `CC(C)N(CCC(CCN1CCCCC1)(C(N)=O)c1ccccc1Cl)C(C)C` (stereo not given) [DISOBUTAMIDE] showed an IC50 above 20 µM.

As for `C[C@H]1C[C@H]2[C@@H]3CCC4=CC(=O)C=C[C@]4(C)[C@@]3(F)[C@@H](O)C[C@]2(C)[C@@]1(O)C(=O)CCl` [CLOBETASOL], the IC50 is above 20 µM.

`CC(=O)N[C@@H](CC(C)C)C(=O)O` yielded an IC50 above 20 µM.

As to `C[N+](C)(C)CC[N+]1(C)Cc2c(Cl)c(Cl)c(Cl)c(Cl)c2C1` [CHLORISONDAMINE], the IC50 was above 20 µM.

`CCC(Cc1c(I)cc(I)c(N)c1I)C(=O)O` (stereo not given) [IOPANOIC ACID] came in with an IC50 above 20 µM.

`O=C(OCC(O)CO)c1ccccc1Nc1ccnc2cc(Cl)ccc12` (stereo not given) [GLAFENINE] yielded an IC50 above 20 µM.

`COc1ccc(NC(=O)c2ccc(C(=N)N(C)C)cc2)c(C(=O)Nc2ccc(Cl)cn2)c1` [BETRIXABAN]: the IC50 is above 20 µM.

The compound `Cc1nnc(C(C)C)n1[C@H]1C[C@H]2CC[C@@H](C1)N2CC[C@H](NC(=O)C1CCC(F)(F)CC1)c1ccccc1` [MARAVIROC] returned an IC50 above 20 µM.

Take `CCCCC/C=C\C/C=C\C/C=C\C/C=C\CCCC(=O)NCCO` [ANANDAMIDE]: the IC50 was above 20 µM.

`CC(=O)Nc1cccc2c1c(Sc1ccc(Cl)cc1)c(C)n2CC(=O)O` [AZD1981]: the IC50 is above 20 µM.

`O=C(O)CC(S)C(=O)O` (stereo not given) came in with an IC50 above 20 µM.

As for `Cc1cc(C(C)(C)C)cc(C)c1CC1=NCCN1` [XYLOMETAZOLINE], the IC50 is above 20 µM.

In turn, `Clc1ccc(C(c2ccccc2Cl)C(Cl)Cl)cc1` (stereo not given) [MITOTANE] gave an IC50 above 20 µM.

Consider `CNC(=O)c1cc(Oc2ccc3nc(N[C@@H]4CCCC[C@H]4O)sc3c2)ccn1` [SOTULETINIB], for which the IC50 is above 20 µM.

`O=c1cc[nH]c(=O)[nH]1` [URACIL] returned an IC50 above 20 µM.

`Nc1ccc(S(=O)(=O)c2ccc(N)cc2)cc1` [DAPSONE] showed an IC50 above 20 µM.

Turning to `Oc1ccc2c3c1O[C@H]1[C@@H](O)CC[C@@]4(O)[C@@H](C2)N(CC2CCC2)CC[C@]314` [NALBUPHINE], the IC50 is above 50.1 µM.

`CCN(CC)CCOC(=O)C1(c2ccc([N+](=O)[O-])cc2)CCCC1` registered an IC50 above 20 µM.

`C[C@@H](O)[C@H]1C(=O)N2C(C(=O)O)=C(SCCNC=N)C[C@H]12` [IMIPENEM ANHYDROUS] showed an IC50 above 20 µM.

In turn, `CC(=O)OCC(=O)C1(O)C(C)CC2C3CC(F)C4=CC(=O)C=CC4(C)C3C(O)CC21C` (stereo not given) showed an IC50 above 20 µM.

The compound `CCc1nn(CCO)c(CC)c1Oc1cc(C#N)cc(C#N)c1` [LERSIVIRINE] returned an IC50 above 20 µM.

`CNC(=O)c1cccc(NCC(=O)NCCc2ccc(OC)c(OC)c2)c1` [ECABAPIDE] showed an IC50 above 20 µM.

The compound `C[C@H](CCC(=O)O)[C@H]1CC[C@H]2[C@@H]3[C@@H](O)C[C@@H]4C[C@H](O)CC[C@]4(C)[C@H]3CC[C@]12C` [URSODIOL] returned an IC50 above 20 µM.

The same test, now with this note: Severe acute respiratory syndrome coronavirus 2, Vero C1008, 48 h, read-out: pIC50 (converted).
Take `CC(=O)Oc1cc(O[C@H](C)CCCc2ccccc2)cc2c1[C@@H]1C[C@H](O)CC[C@H]1[C@H](C)N2` [LEVONANTRADOL]: the IC50 was above 20 µM.

Regarding `CC(C)Nc1nc2cc(Cl)c(Cl)cc2n1[C@H]1O[C@@H](CO)[C@H](O)[C@@H]1O` [MARIBAVIR], the IC50 is above 50.1 µM.

As for `O=C(O)c1ccc(OCCn2ccnc2)cc1` [DAZOXIBEN], the IC50 was above 20 µM.

In the case of `COc1cccc(OC)c1-c1cc(C(=O)NC2(C(=O)O)C3CC4CC(C3)CC2C4)nn1-c1ccnc2cc(Cl)ccc12` (stereo not given) [REMINERTANT], the IC50 is above 20 µM.

For `CN1CCN(C(=O)OC2c3nccnc3C(=O)N2c2ccc(Cl)cn2)CC1` (stereo not given) [ZOPICLONE], the IC50 is above 20 µM.

Consider `Nc1ccc(C(=O)O)c(O)c1` [AMINOSALICYLIC ACID], for which the IC50 was above 20 µM.

For the compound `CNC(=C[N+](=O)[O-])NCCSCc1csc(CN(C)C)n1` [NIZATIDINE], the IC50 was above 20 µM.

Take `CC(C)N(CCC(CCN1CCCCC1)(C(N)=O)c1ccccc1Cl)C(C)C` (stereo not given) [DISOBUTAMIDE]: the IC50 is above 20 µM.

On to `C[C@H]1C[C@H]2[C@@H]3CCC4=CC(=O)C=C[C@]4(C)[C@@]3(F)[C@@H](O)C[C@]2(C)[C@@]1(O)C(=O)CCl` [CLOBETASOL], for which the IC50 was above 20 µM.

Turning to `CC(=O)N[C@@H](CC(C)C)C(=O)O`, the IC50 was above 20 µM.

Regarding `C[N+](C)(C)CC[N+]1(C)Cc2c(Cl)c(Cl)c(Cl)c(Cl)c2C1` [CHLORISONDAMINE], the IC50 is above 20 µM.

In the case of `CCC(Cc1c(I)cc(I)c(N)c1I)C(=O)O` (stereo not given) [IOPANOIC ACID], the IC50 is above 20 µM.

As to `O=C(OCC(O)CO)c1ccccc1Nc1ccnc2cc(Cl)ccc12` (stereo not given) [GLAFENINE], the IC50 is above 20 µM.

Take `COc1ccc(NC(=O)c2ccc(C(=N)N(C)C)cc2)c(C(=O)Nc2ccc(Cl)cn2)c1` [BETRIXABAN]: the IC50 is above 20 µM.

For `Cc1nnc(C(C)C)n1[C@H]1C[C@H]2CC[C@@H](C1)N2CC[C@H](NC(=O)C1CCC(F)(F)CC1)c1ccccc1` [MARAVIROC], the IC50 is above 20 µM.

As to `CCCCC/C=C\C/C=C\C/C=C\C/C=C\CCCC(=O)NCCO` [ANANDAMIDE], the IC50 was above 20 µM.

Regarding `CC(=O)Nc1cccc2c1c(Sc1ccc(Cl)cc1)c(C)n2CC(=O)O` [AZD1981], the IC50 was above 20 µM.

With `O=C(O)CC(S)C(=O)O` (stereo not given), the IC50 was above 20 µM.

Consider `Cc1cc(C(C)(C)C)cc(C)c1CC1=NCCN1` [XYLOMETAZOLINE], for which the IC50 is above 20 µM.

On to `Clc1ccc(C(c2ccccc2Cl)C(Cl)Cl)cc1` (stereo not given) [MITOTANE], for which the IC50 is above 20 µM.

`CNC(=O)c1cc(Oc2ccc3nc(N[C@@H]4CCCC[C@H]4O)sc3c2)ccn1` [SOTULETINIB]: the IC50 is above 20 µM.

For the compound `O=c1cc[nH]c(=O)[nH]1` [URACIL], the IC50 is above 20 µM.

Turning to `Nc1ccc(S(=O)(=O)c2ccc(N)cc2)cc1` [DAPSONE], the IC50 was above 20 µM.

With `Oc1ccc2c3c1O[C@H]1[C@@H](O)CC[C@@]4(O)[C@@H](C2)N(CC2CCC2)CC[C@]314` [NALBUPHINE], the IC50 is above 50.1 µM.

Take `CCN(CC)CCOC(=O)C1(c2ccc([N+](=O)[O-])cc2)CCCC1`: the IC50 is above 20 µM.

As for `C[C@@H](O)[C@H]1C(=O)N2C(C(=O)O)=C(SCCNC=N)C[C@H]12` [IMIPENEM ANHYDROUS], the IC50 was above 20 µM.

Turning to `CC(=O)OCC(=O)C1(O)C(C)CC2C3CC(F)C4=CC(=O)C=CC4(C)C3C(O)CC21C` (stereo not given), the IC50 was above 20 µM.

With `CCc1nn(CCO)c(CC)c1Oc1cc(C#N)cc(C#N)c1` [LERSIVIRINE], the IC50 was above 20 µM.

As for `CNC(=O)c1cccc(NCC(=O)NCCc2ccc(OC)c(OC)c2)c1` [ECABAPIDE], the IC50 is above 20 µM.

As for `C[C@H](CCC(=O)O)[C@H]1CC[C@H]2[C@@H]3[C@@H](O)C[C@@H]4C[C@H](O)CC[C@]4(C)[C@H]3CC[C@]12C` [URSODIOL], the IC50 was above 20 µM.
